IC50 and ED50 data for 34 molecules are collected here from patent publication US5177069A, “Naphthysulfonylalkanoic acid compounds and pharmaceutical compositions thereof” (Kissei Pharmaceutical Co., Ltd., priority 1989, dated 1993).

Each structure is given as a SMILES string.

Usually IC50 stands for the concentration at which inhibition is half-maximal. Read a high IC50 as weaker potency in that assay. Usually ED50 stands for the dose at which the effect has come halfway, by size or by number of responders.

In test [1] the target is T1, CCK-receptor (Rattus norvegicus, UniProt P30551).
T1 construct: Pancreatic plasma membranes were prepared by the method of Chang et al; from tissue; host or cells: pancreas of male Wistar rats (pancreatic plasma membranes)
T1 sequence (P30551 1-444): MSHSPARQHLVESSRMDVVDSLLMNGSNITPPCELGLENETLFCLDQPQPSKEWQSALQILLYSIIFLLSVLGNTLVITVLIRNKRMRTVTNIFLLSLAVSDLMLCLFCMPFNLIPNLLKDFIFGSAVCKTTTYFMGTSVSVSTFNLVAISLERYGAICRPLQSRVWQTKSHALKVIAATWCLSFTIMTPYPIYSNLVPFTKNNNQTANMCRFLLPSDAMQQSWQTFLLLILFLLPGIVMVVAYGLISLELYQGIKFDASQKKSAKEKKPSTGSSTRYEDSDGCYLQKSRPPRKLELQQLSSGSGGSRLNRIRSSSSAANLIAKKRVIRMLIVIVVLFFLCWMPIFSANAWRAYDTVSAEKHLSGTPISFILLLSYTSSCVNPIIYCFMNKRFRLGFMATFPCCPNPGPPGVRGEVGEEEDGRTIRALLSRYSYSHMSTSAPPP
The test can be described thus: CCK-receptor binding assay in pancreas (125I-CCK-8, pancreatic plasma membranes). Also noted: species or system Male Wistar rats. The following applies: 30 pM 125I-CCK-8, rat pancreatic plasma membranes, 37° C., 30 minutes; inhibition of specific binding. The procedure: CCK-receptor binding assay in pancreas
Pancreatic plasma membranes were prepared by the method of Chang et al. (Molecular Pharmacology, Vol. 30, p. 212-, 1986). Male Wistar rats were sacrificed by decapitation and the pancreas was removed. The pancreas was dissected free from adipose tissue and minced in 50 volumes ice-cold Tris-HCl buffer (50 mM, pH 7.4 at 37° C.). Homogenization was performed using ultra disperser and the homogenate was centrifuged at 50,000×g for 10 minutes. The pellet was washed by resuspension in the same volume of fresh Tris-HCl buffer and again centrifuged as above. The final pellet was suspended in assay buffer (50 mM Tris-HCl, 5 mM MgCl2, 5 mM dithiothreitol, 2 mg/ml of bovine serum albumin, and 0.14 mg/ml of bacitracin), and used as receptor sources for binding assay.
Thirty pM ^125 I-CCK-8 (final concentration), test drug or vehicle (for total binding) or 10^-6 M CCK-8 (for nonspecific binding) were added to the assay medium containing pancreatic plasma membranes (0.5 mg of original wet weight/ml). After incubation at 37° C. for 30 minutes, the assay medium was filtrated under reduced pressure through glass fiber filter and washed four times with 4 ml of ice-cold Tris-HCl buffer. The radioactivity trapped on the filter was counted by γ-counter (Packard 5650).
Specific binding was defined as the radioactivity bound after subtracting nonspecific binding determined in the presense of 10^-6 M unlabeled CCK-8. IC50 value was calculated from inhibition percentage of specific binding by each test drug.

In test [2] the test system is isolated gallbladder. The test can be described thus: CCK-antagonism in isolated gallbladder (contraction induced by CCK-8). The conditions noted are these: Cavia porcellus; guinea-pig gallbladder strips, Krebs solution 37° C.; contraction induced by 10^-8 M CCK-8. The format is cell-based, male Hartley guinea-pig. The procedure: CCK-antagonism in isolated gallbladder
Gallbladder strips isolated from male Hartley guinea-pig were prepared and suspended in Magnus bath filled with Krebs solution (1 g of initial tension). The solution kept at 37° C. was aerated with a mixture of 95% O2 and 5% CO2. The isometric contraction of strips was recorded through a force-displacement transducer. Antagonism by test drugs against gallbladder contraction induced by 10^-8 M CCK-8 was examined and IC50 value was calculated.

Test [3] deals with amylase secretion. The test can be described thus: Effect on amylase secretion in rats (stimulated by CCK-8). The format is in vivo, Male Wistar rats. The conditions noted are these: Rattus norvegicus; intraduodenal, 30 minutes before subcutaneous CCK-8 (10 μg/kg); urethane-anesthetized rats. The procedure:
Effect on amylase secretion in rats
Male Wistar rats were anesthetized with urethane (1.5 g/kg, S.C.), and tracheal cannula was inserted. Biliopancreatic juice was collected from the cannula which had been inserted into the common bile duct. Thirty minutes after intraduodenal administration of test drug, amylase secretion was stimulated by subcutaneous injection of CCK-8 (10 μg/kg). Amylase concentration in the sample collected every 30 minutes during experiment was assayed using Amylase B Test (Wako), and ED50 value was calculated.

In test [1], `CCCCCN(CC(=O)NC(C)C)C(=O)C(CCC(=O)O)CS(=O)(=O)c1ccc2ccccc2c1` (stereo not shown) [compound 30] showed an IC50 of 4100 nM.

Take `CCCCCN(CCCN1CCCC1=O)C(=O)C(CCC(=O)O)CS(=O)(=O)c1ccc2ccccc2c1` (stereo not shown) [compound 53]: the IC50 in test [1] amounted to 220 nM.

Regarding `CCCCCN(CCCOC)C(=O)C(CCC(=O)O)CS(=O)(=O)c1ccc2ccccc2c1` (stereo not shown) [Compound No. 18, 4-[N-(3-Methoxypropyl)-N-pentylcarbamoyl]-5-(2-naphthylsulfonyl)pentanoic acid], the values for the IC50 in test [1] and in test [2] were 340 nM and 6800 nM, respectively. Moreover, the ED50 in test [3] is 15.7 mg/kg.

`CCCCCN(CC(=O)N(C(C)C)C(C)C)C(=O)C(CCC(=O)O)CS(=O)(=O)c1ccc2ccccc2c1` (stereo not shown) [compound 29] registered an IC50 in test [1] of 2300 nM.

As to `CCCCCN(CC(=O)O)C(=O)C(CCC(=O)O)CS(=O)(=O)c1ccc2ccccc2c1` (stereo not shown) [compound 33], in test [1], the concentration for half-maximal inhibition (IC50) was 3400 nM.

As for `CCCCCN(CC(=O)OC(C)(C)C)C(=O)C(CCC(=O)O)CS(=O)(=O)c1ccc2ccccc2c1` (stereo not shown) [compound 25], the IC50 in test [1] worked out at 49 nM. In test [3], this molecule returned a median effective dose (ED50) of 8 mg/kg.

Consider `CCCCCN(CC(=O)OCC)C(=O)C(CCC(=O)OC)CS(=O)(=O)c1ccc2ccccc2c1` (racemic) [compound 7, methyl 4-(N-ethoxycarbonylmethyl-N-pentylcarbamoyl)-5-(2-naphthylsulfonyl)pentanoate], for which the 50% inhibitory concentration (IC50) in test [1] stood at 1700 nM.

Molecule `CCCCCN(CC(=O)NC1CCCCC1)C(=O)C(CCC(=O)O)CS(=O)(=O)c1ccc2ccccc2c1` (stereo not shown) [compound 31] came in with a half-inhibitory concentration (IC50) in test [1] of 2000 nM.

The molecule `CCCCCN(CCCOC)C(=O)C(CCC(=O)O)CS(=O)(=O)c1ccc2ccccc2c1` (single isomer, unassigned) [compound 23] returned a half-maximal inhibitory concentration (IC50) in test [1] of 3300 nM.

Turning to `CCCCCN(CCCOC)C(=O)C(CCC(=O)O)CS(=O)(=O)c1ccc2ccccc2c1` (single isomer, unassigned; (-)) [compound 22, (-)-4-[N-(3-methoxypropyl)-N-pentylcarbamoyl]-5-(2-naphthylsulfonyl)pentanoic acid], the 50% inhibitory concentration (IC50) in test [1] turned out to be 120 nM; in test [2], 2800 nM.

In test [1], `CCCCCN(CC(=O)N1CCOCC1)C(=O)C(CCC(=O)O)CS(=O)(=O)c1ccc2ccccc2c1` (stereo not shown) [compound 54] displayed an IC50 of 610 nM.

In test [1], `CCCCCN(CC(=O)OC(C)(C)C)C(=O)C(CCC(=O)O)CS(=O)(=O)c1ccc2ccccc2c1` (single isomer, unassigned) [compound 26] registered an IC50 of 25 nM.

In the case of `CCCCCN(CC(=O)N(CC)CC)C(=O)C(CCC(=O)O)CS(=O)(=O)c1ccc2ccccc2c1` (stereo not shown) [compound 28], the 50% inhibitory concentration (IC50) in test [1] turned out to be 210 nM.

As to `CCCCCN(CC(=O)O)C(=O)C(CCC(=O)OC)CS(=O)(=O)c1ccc2ccccc2c1` (stereo not shown) [Compound No. 15, N-[2-(2-Methoxycarbonylethyl)-3-(2-naphthylsulfonyl)propionyl]-N-pentylglycine], in test [1], the IC50 stood at 7300 nM.

`C=CCOCCN(CCOCC=C)C(=O)C(CCC(=O)OC)CS(=O)(=O)c1ccc2ccccc2c1` (stereo not shown) [compound 37] displayed a 50% inhibitory concentration (IC50) in test [1] of 3100 nM.

Turning to `CCCCCN(CC(=O)N1CCCCC1)C(=O)C(CCC(=O)O)CS(=O)(=O)c1ccc2ccccc2c1` (stereo not shown) [Compound No. 51, 5-(2-Naphthylsulfonyl)-4-(N-pentyl-N-piperidinocarbonylmethylcarbamoyl)pentanoic acid], in test [1], the IC50 was found to be 400 nM.

With `CCCCCN(CCOC(C)=O)C(=O)C(CCC(=O)O)CS(=O)(=O)c1ccc2ccccc2c1` (stereo not shown) [Compound No. 50, 4-[N-(2-Acetoxyethyl)-N-pentylcarbamoyl]-5-(2-naphtylsulfonyl)pentanoic acid], in test [1], the concentration for half-maximal inhibition (IC50) was 200 nM.

`CCCCCN(CC(=O)OC(C)C)C(=O)C(CCC(=O)O)CS(=O)(=O)c1ccc2ccccc2c1` (stereo not shown) [compound 24] registered a 50% inhibitory concentration (IC50) in test [1] of 44 nM.

`O=C(O)CCC(CS(=O)(=O)c1ccc2ccccc2c1)C(=O)N(CCC1CCCCC1)CCC1CCCCC1` (stereo not shown) [Compound No. 39, 4-[N,N-Bis(2-cyclohexylethyl)carbamoyl]-5-(2-naphthylsulfonyl)pentanoic acid]: the IC50 in test [1] was 1800 nM.

`CCCCCN(CCCCC)C(=O)C(CCC(=O)O)CS(=O)(=O)c1ccc2ccccc2c1` (stereo not shown) [compound 20]: the IC50 in test [1] worked out at 29 nM; in test [2], 2600 nM. In test [3], the 50% effect level (ED50) was put at a dose of 9.6 mg/kg.

The molecule `C=CCOCCN(CCOCC=C)C(=O)C(CCC(=O)O)CS(=O)(=O)c1ccc2ccccc2c1` (stereo not shown) [compound 41] displayed an IC50 in test [1] of 1400 nM.

Molecule `CCOC(=O)CN(CCCOC)C(=O)C(CCC(=O)OCc1ccccc1)CS(=O)(=O)c1ccc2ccccc2c1` (stereo not shown) [compound 38] returned a half-inhibitory concentration (IC50) in test [1] of 110 nM.

Take `CCCCCN(CC(=O)OCC)C(=O)C(CCC(=O)O)CS(=O)(=O)c1ccc2ccccc2c1` (stereo not shown) [Compound No. 19, 4-(N-Ethoxycarbonylmethyl-N-pentylcarbamoyl)-5-(2-naphthylsulfonyl)pentanoic acid]: the IC50 in test [1] is 320 nM; in test [2], 2100 nM. The molecule also yielded an ED50 in test [3] of 33.3 mg/kg.

Molecule `COC(=O)CCC(CS(=O)(=O)c1ccc2ccccc2c1)C(=O)N(CCC1CCCCC1)CCC1CCCCC1` (stereo not shown) [Compound No. 34, Methyl 4-[N,N-bis(2-cyclohexylethyl)carbamoyl]-5-(2-naphthylsulfonyl)pentanoate] returned an IC50 in test [1] of 1700 nM.

In test [1], `CCCCCN(CCOC(=O)C(C)(C)C)C(=O)C(CCC(=O)O)CS(=O)(=O)c1ccc2ccccc2c1` (stereo not shown) [compound 52] gave a half-maximal inhibitory concentration (IC50) of 190 nM.

For `CCCCCN(CCCOC)C(=O)C(CCC(=O)OC)CS(=O)(=O)c1ccc2ccccc2c1` (racemic) [Compound No. 3, methyl 4-[N-(3-methoxypropyl)-N-pentylcarbamoyl]-5-(2-naphthylsulfonyl)pentanoate], the concentration for half-maximal inhibition (IC50) in test [1] was determined as 2400 nM.

For the molecule `CCCCCN(CCCCC)C(=O)C(CC(=O)O)CS(=O)(=O)c1ccc2ccccc2c1` (stereo not shown) [compound 32], the IC50 in test [1] worked out at 290 nM.

In the case of `CCCCCN(CC(=O)N1CCCC1)C(=O)C(CCC(=O)O)CS(=O)(=O)c1ccc2ccccc2c1` (stereo not shown) [compound 55], the half-maximal inhibitory concentration (IC50) in test [1] amounted to 900 nM.

`CC(=O)OCCN(CCOC(C)=O)C(=O)C(CCC(=O)OCc1ccccc1)CS(=O)(=O)c1ccc2ccccc2c1` (stereo not shown) [compound 35] returned an IC50 in test [1] of 4000 nM.

Turning to `CCOC(=O)CN(CC(=O)OCC)C(=O)C(CCC(=O)O)CS(=O)(=O)c1ccc2ccccc2c1` (stereo not shown) [compound 40, 4-[N,N-Bis(ethoxycarbonylmethyl)carbamoyl]-5-(2-naphthylsulfonyl)pentanoic acid], the IC50 in test [1] came out at 2100 nM.

In test [1], `CCCCCN(CC(=O)N(C)C)C(=O)C(CCC(=O)O)CS(=O)(=O)c1ccc2ccccc2c1` (stereo not shown) [compound 27] returned a 50% inhibitory concentration (IC50) of 2200 nM.

For `CCCCCN(CCC(=O)OCC)C(=O)C(CCC(=O)O)CS(=O)(=O)c1ccc2ccccc2c1` (stereo not shown) [compound 21], the IC50 stood at 400 nM in test [1] and 2900 nM in test [2].

On to `CCCCCN(CC(=O)OCC)C(=O)C(CCC(=O)OCc1ccccc1)CS(=O)(=O)c1ccc2ccccc2c1` (racemic) [compound 6, benzyl 4-(N-ethoxycarbonylmethyl-N-pentylcarbamoyl)-5-(2-naphthylsulfonyl)pentanoate], for which, in test [1], the IC50 is 1700 nM.

As for `CCOC(=O)CN(CC(=O)OCC)C(=O)C(CCC(=O)OCc1ccccc1)CS(=O)(=O)c1ccc2ccccc2c1` (stereo not shown) [compound 36, benzyl 4-[N,N-bis(ethoxycarbonylmethyl)carbamoyl]-5-(2-naphthylsulfonyl)pentanoate], the IC50 in test [1] stood at 6500 nM.
